Source: US20250320190A1, “Novel Inhibitors of Leucine Carboxyl Methyltransferase-1 (LCMT-1) and Methods of Use Thereof” (Temple University-Of The Commonwealth System of Higher …, priority 2024, published 2025)
≈ marks a conversion by molar mass, not a printed value. Where two headings read alike, the source gives them in different places.

Assays:
[1] = tested on: MCF7 cells; experiment: Cytotoxicity assay (calcein-AM); assay type: cell-based, human; details: MCF7, 48 hours
Description: (§1) HS-5, HEK-293, MCF7, MDA-MB-231 and Rosi cells were seeded in 96-well optical bottom tissue culture plates (Corning, New York) at a density of 2.5×10^3 cells/well. After 24 hours, the media were changed to media containing LB-100 (Cayman Chemical Company, Ann Arbor, Michigan) or Compound 2 at various concentrations (50-0.31 μM). Control cells were given fresh media. After 48 hours the media were aspirated and plates were washed with warmed Dulbecco's phosphate-buffered saline (DPBS) with calcium and magnesium (Sigma-Aldrich, catalog #D1283). Cells were stained with 3 μM calcein-AM (AAT Bioquest, Pleasanton, California, catalog #22002) in DPBS for 30 minutes in the dark at 37° C. Plates were immediately read with a Biotek fluorescent plate reader (excitation 485 nm, emission 520 nm). The cytotoxicity assays were performed at least three times, each time with six replicates per condition.

[2] = tested on: MDA-MB-231 cells; experiment: Cytotoxicity assay (calcein-AM); assay type: cell-based, human; details: MDA-MB-231, 48 hours
Description: as §1

[3] = Kinetic solubility; assay type: physicochemical; details: 2% dimethylsulfoxide/PBS, aqueous buffer, kinetic from dmso stock; read-out: Max. Kinetic Solubility
Description: (§2) There is no cause for concern at this stage since there are multiple strategies and reagents for enhancing aqueous solubility for animal in vivo studies (Savjani, K. T., A. K. Gajjar and J. K. Savjani, 2012, ISRN Pharm 2012: 195727.). […] While target tissue exposure is dependent on free, unbound fractions in the plasma, plasma protein binding can protect compounds from hepatic metabolism. Thus, in vivo metabolism and excretion are often determined by a balance between these two properties. In vivo half-life is a complicated property impacted upon by multiple factors and is difficult to predict. […] While these numbers are somewhat low for a drug candidate, they are acceptable for proof of concept tool molecules which can be given multiple times per day and at higher doses to saturate metabolism.

[4] = Liver microsomal stability; assay type: in vitro ADME
Description: as §2

[5] = tested on: Rosi cells; experiment: Cytotoxicity assay (CellTiter 96 AQeous); assay type: cell-based; details: Homo sapiens, 48 hours
Description: (§3) MCF7, MDA-MB-231, 501-MEL, Rosi, A549, SCC-15, SCC-25, UM-SCC-12, UM-SCC-14a, UM-SCC-49 and UM-SCC69 cells were seeded in 96-well tissue culture plates (Corning, New York) at a density of 2.5×10^3 cells/well. After 24 hours, the media were changed to media with LCMT-li (ChemSpace, Monmouth Junction, New Jersey) at various concentrations (0.78-200 μM). Control cells were given fresh media. After 48 hours cell viability was assessed using CellTiter 96® AQeous Non-Radioactive Cell Proliferation Assays (Promega Corporation, Madison Wisconsin). Plates were read after 4 hours with a GloMax® Discover plate reader (Promega Corporation, Madison Wisconsin). The cytotoxicity assays were performed at least twice, each time with eight replicates per condition.
(§4) Statistical analyses were performed with GraphPad Prism software (version 10.4.1). Effective concentrations that inhibited 50% of cells (EC50, log agonist versus response) were estimated with nonlinear fit curves. Absorbance values for cytotoxity assays and relative densities for Western blot assays were compared using Kruskal-Wallis analyses of variance with Dunn's correction for multiple comparisons. For flow cytometric analyses, two-way analyses of variance with Tukey's correction for multiple comparisons were used.

[6] = tested on: 501-MEL cells; experiment: Cytotoxicity assay (CellTiter 96 AQeous); assay type: cell-based; details: Homo sapiens, 48 hours
Description: as §3, §4

[7] = tested on: UM-SCC-12 cells; experiment: Cytotoxicity assay (CellTiter 96 AQeous); assay type: cell-based; details: Homo sapiens, 48 hours
Description: as §3, §4

[8] = tested on: MCF7 cells; experiment: Cytotoxicity assay (CellTiter 96 AQeous); assay type: cell-based; details: Homo sapiens, 48 hours
Description: as §3, §4

[9] = tested on: MDA-MB-231 cells; experiment: Cytotoxicity assay (CellTiter 96 AQeous); assay type: cell-based; details: Homo sapiens, 48 hours
Description: as §3, §4

[10] = tested on: SCC-15 cells; experiment: Cytotoxicity assay (CellTiter 96 AQeous); assay type: cell-based; details: Homo sapiens, 48 hours
Description: as §3, §4

[11] = tested on: A549 cells; experiment: Cytotoxicity assay (CellTiter 96 AQeous); assay type: cell-based; details: Homo sapiens, 48 hours
Description: as §3, §4

[12] = tested on: UM-SCC-49 cells; experiment: Cytotoxicity assay (CellTiter 96 AQeous); assay type: cell-based; details: Homo sapiens, 48 hours
Description: as §3, §4

[13] = tested on: UM-SCC-14a cells; experiment: Cytotoxicity assay (CellTiter 96 AQeous); assay type: cell-based; details: Homo sapiens, UMSCC14A, 48 hours
Description: as §3, §4

[14] = tested on: UM-SCC-69 cells; experiment: Cytotoxicity assay (CellTiter 96 AQeous); assay type: cell-based; details: Homo sapiens, 48 hours
Description: as §3, §4

[15] = tested on: SCC-25 cells; experiment: Annexin V assay with and without irradiation; assay type: cell-based, human; details: alone or in combination with irradiation
Description: (§5) Head and neck cancer (HNC) cell lines were used for further analyses. Cells were seeded in 60 mm dishes at a density of 8×10^5 cells/dish. After 24 hours, cells were treated with LCMT-li, radiotherapy or both. Control cells were given fresh media. Because radiosensitization was seen between 2.5-10 μM in SCC-15, SCC-25, UM-SCC-49, and UM-SCC-69, irradiated cells were treated with or without 10 μM LCMT-li as described. Twenty-four hours after treatment, cells were lifted with Accutase and washed twice with PBS (pH 7.4) with 10% FBS. Cells were resuspended in annexin V binding buffer (10 mM HEPES (pH 7.4), 140 mM NaCl and 2.5 mM CaCl2)) and labeled with FITC-anti-Annexin V and 7-AAD (Biolegend, San Diego, California, FITC Annexin V Apoptosis Detection Kit with 7-AAD, catalog #640922). Cell surface annexin V expression was assessed immediately with flow cytometry. Annexin V assays were performed with 12 replicates, 104 cells/replicate.

[16] = tested on: UM-SCC-12 cells; experiment: Annexin V assay with and without irradiation; assay type: cell-based, human
Description: as §5

[17] = tested on: SCC-15 cells; experiment: Annexin V assay with and without irradiation; assay type: cell-based, human
Description: as §5

[18] = tested on: UM-SCC-49 cells; experiment: Annexin V assay with and without irradiation; assay type: cell-based, human; details: LCMT-li, irradiation or both
Description: as §5

[19] = tested on: UM-SCC-14a cells; experiment: Annexin V assay with and without irradiation; assay type: cell-based, human; details: LCMT-li combined with irradiation
Description: as §5

[20] = tested on: UM-SCC-69 cells; experiment: Annexin V assay with and without irradiation; assay type: cell-based, human
Description: as §5

[21] = Homo sapiens, read-out: Log [μM] EC50 (converted)
[22] = LCMT-li monotherapy vs control cells
[23] = 10 μM LCMT-li with irradiation vs irradiation alone

COC(=O)c1c(NC(=O)c2ccccc2C)sc(C(=O)Nc2cccc(C)c2)c1C [Compound 2, methyl 4-methyl-2-[(2-methylbenzoyl)amino]-5-[[(3-methylphenyl)amino]carbonyl]-3-thiophenecarboxylate]
EC50 [1, 21]: 2.24 µM | inhibition of survival ([1]; concentrations tested 50-0.31 μM): Neither LB-100 nor Compound 2 significantly inhibited survival | EC50 [2, 21]: 3.89 µM | concentration at which survival was significantly inhibited [2]: 25 µM | solubility kinetic [3]: 18.5 µM (≈ 7.82 µg/mL) | half-life ([4]; human liver microsomes, read-out: Liver Microsomal Stability (t1/2) Human): 31.1 min | half-life ([4]; mouse liver microsomes, read-out: Liver Microsomal Stability (t1/2) Mouse): 17.3 min | EC50 [5]: 3.16 µM | EC50 [6]: 60.6 µM | EC50 [7]: 209 µM | EC50 [8]: 2.24 µM | EC50 [9]: 3.89 µM | EC50 [10]: 4.26 µM | EC50 [11]: 41.4 µM | EC50 [12]: 4.95 µM | EC50 [13]: 26.4 µM | EC50 [14]: 2.49 µM | apoptosis or ferroptosis [15]: did not increase apoptosis or ferroptosis | apoptosis (annexin V) [16, 22]: increased apoptosis | apoptosis (annexin V) ([16]; with irradiation vs irradiation alone): did not increase apoptosis in the presence of irradiation as compared to irradiation alone | apoptosis (annexin V) [17, 23]: increased apoptosis in comparison to irradiation alone | apoptosis (annexin V) ([17]; LCMT-li monotherapy vs control cells, 24 hours): increased apoptosis | apoptosis, necroptosis and ferroptosis [18]: did not differ between the experimental conditions | programmed cell death [19]: did not increase programmed cell death | apoptosis (annexin V) [20, 23]: increased apoptosis in comparison to irradiation alone | apoptosis (annexin V) [20, 22]: increased apoptosis
